Values quoted from earlier work as cited in paper PMC4753123 (Archives of biochemistry and biophysics, 2015).

Molecular target: T1, Mtm1p (Saccharomyces cerevisiae, UniProt P53320)
T1 sequence (P53320 1-366): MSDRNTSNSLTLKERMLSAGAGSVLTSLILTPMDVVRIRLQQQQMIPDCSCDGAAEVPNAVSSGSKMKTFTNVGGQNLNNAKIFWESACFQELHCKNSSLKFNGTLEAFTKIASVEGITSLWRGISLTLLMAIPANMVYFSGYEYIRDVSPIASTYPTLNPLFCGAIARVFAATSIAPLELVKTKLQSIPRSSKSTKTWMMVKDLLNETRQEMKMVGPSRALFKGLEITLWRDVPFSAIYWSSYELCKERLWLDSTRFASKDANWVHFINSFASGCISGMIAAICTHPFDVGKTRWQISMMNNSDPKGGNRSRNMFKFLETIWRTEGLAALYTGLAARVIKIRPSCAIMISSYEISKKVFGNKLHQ
Experiment: fluorescence titration
Assay type: binding
Conditions: purified recombinant protein

Kd: 600 nM
SMILES: Cc1ncc(COP(=O)(O)O)c(C=O)c1O [PLP]
